Experimental data: US9884881B2, “Chelates of lead (II) and bismuth (III) based on trans-di-N-picolinate tetraazacycloalkanes” (CNRS—CENTRE NATIONAL DE LA RECHERCHE SCIENTIFIQUE, priority 2013, dated 2018)

Tests used:
[1] = 1H NMR competition with DOTA for complexation of bismuth (III); type: physicochemical
Protocol: As regards the chelate of Me-DODPA and bismuth (III) or DODPA and bismuth (III), the thermodynamic stability constants were evaluated by NMR ^1H (in a concentration of 10^−2 M) in studying the competitivity of the complexation of bismuth (III) with Me-DODPA or DODPA and DOTA. Indeed, such a constant cannot be measured directly by potentiometery for the bismuth chelates
A mole equivalent of […] was added to an equimolar solution of DODPA and DOTA at pH=1. The pH was then adjusted to 3 and an NMR spectrum was recorded. After five days at 25° C., it was observed that about 40% of the DODPA had been complexated with bismuth (III). […] Chem., 2003, 42, 2342-2349, is about 30.3.

[2] = Thermodynamic stability constant pK of lead (II) chelates by potentiometry; type: physicochemical; settings: 25° C., 0.10 M in KNO3
Protocol: (§1) For the DODPA or Me-DODPA chelates with lead (II), the thermodynamic stability constant pK was determined directly by potentiometery at 25° C., for a concentration of 0.10 M in KNO3. […] The pM values corresponding to the non-chelated lead concentrations were therefore computed for the DODPA or Me-DODPA chelates with lead (II) and compared with the value known for the DOTA chelate with lead (II). This value pM is defined by the negative logarithm of the free metal concentration at a pH of 7.4 and with a concentration of Pb(II) of 10 μM and a ligand concentration that is ten times greater. A pM value of 12.3 was measured for the chelate of DODPA and lead (II) and 14.9 for the chelate of Me-DODPA and lead (II) while the known pM value for the complex of DOTA and lead (II) is 18.4

[3] = pM value (free lead concentration) of lead (II) chelates; type: physicochemical; settings: pH 7.4, Pb(II) 10 μM, ligand concentration ten times greater
Protocol: as §1

[4] = Kinetics of dissociation of complexes in DCl 0.1 M by NMR; type: physicochemical
Protocol: The kinetics of dissociation of these complexes were also studied by NMR. In this context, the [Bi(Me-DODPA)](NO3) and [Pb(Me-DODPA)] complexes were dissolved in DCl 0.1 M.

[5] = Kinetics of complexation with bismuth (III) by UV/Vis spectroscopy; type: physicochemical; settings: 1.65×10^-4 M each, stirring at ambient temperature
Protocol: (§2) The kinetics of complexation of Me-DODPA chelates with bismuth (III) and lead (II) were studied by UV/Vis spectroscopy.
An aqueous solution of Bi(NO3)3.5H2O (1.65×10^−4 M) was added to an aqueous solution of Me-DODPA (1.65×10^−4M). The UV/Vis spectra were recorded at different reaction times.

[6] = Kinetics of complexation with lead (II) by UV/Vis spectroscopy; type: physicochemical; settings: equimolar 0.74×10^-4 M, pH=7
Source text: as §2
Referring to FIG. 4, a total complexation of Me-DODPA with lead (II) was observed ten minutes after the equimolar mixing (0.74×10^−4 M) of an aqueous solution of PbCl2 and an aqueous solution of Me-DODPA at pH=7.

[7] = In vitro stability of the radio-labeled chelate in human plasma; type: in vitro ADME
Protocol: The stability of the serum and of the in vitro chelate were also studied by TLC and by HPLC.
For the stability of the serum, 200 μL of radiomarked Me-DODPA^2− solution (activity: 1 MBq, radiochemical purity: 95%) were mixed with 800 μL of human plasma. The plasma stability values were controlled in comparison with free ^213Bi, after 1 and 2 hours of incubation (about 1 and 2 half-lives) at ambient temperature by direct gel permeation chromatography on plasma in a PD-10 column and by TLC analysis of this supernatant after precipitation of the plasma proteins with ammonium sulfate. The TLC analysis was performed under the same conditions as earlier. After precipitation, the activity in the precipitate was measured (78.8%) as also the activity in the supernatant ([…]).

[8] = human plasma, ammonium sulfate precipitation

Q: With `O=C(O)c1cccc(CN2CCNCCN(Cc3cccc(C(=O)O)n3)CCNCC2)n1` [DODPA] as the compound, how does the “ligand complexated with bismuth (III) in competition with DOTA” value ([1]; equimolar ligand and DOTA, one mole equivalent Bi, pH 3, five days at 25° C., 10^-2 M) read?
A: Its value is “about 40%”.

Q: For `CN1CCN(Cc2cccc(C(=O)[O-])n2)CCN(C)CCN(Cc2cccc(C(=O)[O-])n2)CC1.[Pb+2]` [[Pb(Me-DODPA)]], which “thermodynamic stability constant pK” value [2] is on record?
A: Its value is 18.74.

Q: And the “pM value (negative logarithm of the free metal concentration)” value [3]?
A: Its value is 14.9.

Q: And the “dissociation of the complex” value [4]?
A: Its value is “total dissociation of the complex [Pb(Me-DODPA)] was observed at the end of seven days”.

Q: Which “bismuth (III) complexated in equimolar mixture of ligand and DOTA” value ([1]; equimolar mixture of Me-DODPA and DOTA) does the source give for `CN1CCN(Cc2cccc(C(=O)O)n2)CCN(C)CCN(Cc2cccc(C(=O)O)n2)CC1` [Me-DODPA] here?
A: Its value is “the totality of the bismuth (III) was complexated by the Me-DODPA”.

Q: What about the “time to total complexation with bismuth (III)” value [5] of the same compound?
A: The value was 30 min.

Q: And the “time to total complexation with lead (II)” value [6]?
A: The value was “ten”.

Q: For `CN1CCN(Cc2cccc(C(=O)[O-])n2)CCN(C)CCN(Cc2cccc(C(=O)[O-])n2)CC1.CN1CCN(Cc2cccc(C(=O)[O-])n2)CCN(C)CCN(Cc2cccc(C(=O)[O-])n2)CC1.CN1CCN(Cc2cccc(C(=O)[O-])n2)CCN(C)CCN(Cc2cccc(C(=O)[O-])n2)CC1.[213Bi+3].[213Bi+3]` [(^213Bi(Me-DODPA))^+], which “stability in human plasma” value ([7]; 1 and 2 hours of incubation at ambient temperature) is on record?
A: The value was “stable in human plasma for at least two half-lives”.

Q: What about the “radioactivity of the supernatant detected at Fr=0.5 (intact chelate), TLC” value ([7]; human plasma supernatant after protein precipitation) of the same compound?
A: Its value is “more than 90%”.

Q: What about the “activity in the precipitate after precipitation of plasma proteins” value [7, 8] of the same compound?
A: Its value is 78.8%.

Q: And the “activity in the supernatant after precipitation of plasma proteins” value [7, 8]?
A: The value was 3.8%.

Q: For `O=C([O-])c1cccc(CN2CCNCCN(Cc3cccc(C(=O)[O-])n3)CCNCC2)n1.[Pb+2]` [Pb(DODPA)], which “thermodynamic stability constant pK” value [2] is on record?
A: Its value is 17.09.

Q: What about the “pM value (negative logarithm of the free metal concentration)” value [3] of the same compound?
A: Its value is 12.3.
